Results on 19 compounds are retold here after US20090069304A1, “MMP-13 SELECTIVE INHIBITOR” (SHIONOGI & CO., LTD., priority 2006, published 2009).

One data set addresses T1, MMP-2 (Homo sapiens, UniProt P08253).
T1 construct: purchased Calbiochem (EMD/MERCK Biosciences)
T1 sequence (P08253 110-660): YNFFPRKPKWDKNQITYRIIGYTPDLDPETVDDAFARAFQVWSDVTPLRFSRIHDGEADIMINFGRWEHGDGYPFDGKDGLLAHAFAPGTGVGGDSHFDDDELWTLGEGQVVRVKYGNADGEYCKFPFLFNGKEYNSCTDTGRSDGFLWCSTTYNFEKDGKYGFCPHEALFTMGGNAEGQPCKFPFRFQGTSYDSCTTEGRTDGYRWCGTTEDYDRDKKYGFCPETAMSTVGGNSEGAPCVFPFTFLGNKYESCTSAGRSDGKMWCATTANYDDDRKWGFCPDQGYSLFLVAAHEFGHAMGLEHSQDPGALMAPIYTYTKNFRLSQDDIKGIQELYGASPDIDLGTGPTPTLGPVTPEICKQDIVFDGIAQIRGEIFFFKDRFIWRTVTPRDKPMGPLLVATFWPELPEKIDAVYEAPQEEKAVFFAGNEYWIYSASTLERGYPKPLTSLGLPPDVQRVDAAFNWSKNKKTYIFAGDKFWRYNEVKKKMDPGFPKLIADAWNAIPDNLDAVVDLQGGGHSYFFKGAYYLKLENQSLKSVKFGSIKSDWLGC
As to the kind of experiment: Enzyme inhibiting activity of MMPs (fluorogenic peptide substrate), MMP-2. Type of data set: biochemical. Particulars: human MMP-2; substrate MOCAc-Pro-Leu-Gly-Leu-A2Pr(DNP)-Ala-Arg-NH2. The protocol:
(§1) Various human MMPs (MMP-2, MMP-9 and MMP-13) were purchased from Calbiochem (EMD/MERCK Biosciences).
(§2) The enzyme activity of MMPs was measured according to the method described in C. Graham Knight, Frances Willenbrock and Gillian Murphy: A novel coumarin-labelled peptide for sensitive continuous assays of the matrix metalloproteinases: FEBS LETT., 296, (1992), 263-266. As a substrate, MOCAc-Pro-Leu-Gly-Leu-A2Pr(DNP)-Ala-Arg-NH2 (Peptide Institute, Inc. Osaka, Japan) was used, and the following four assays are performed per compound (inhibitor) for measuring the inhibiting activity.
(§3) (A) Substrate (synthetic substrate), enzyme (MMPs), inhibitor (B) Substrate (synthetic substrate), inhibitor (C) Substrate (synthetic substrate), enzyme (MMPs) (D) Substrate (synthetic substrate) In each assay, the fluorescent intensity was measured, and inhibition (%) was calculated by the following equation.
(§4) Inhibition(%)=[I−(A−B)/(C−D)]×100
(§5) IC50 indicates a concentration at which inhibition (%) is 50%.

The target in a further data set is T2, MMP-9 (Homo sapiens, UniProt P14780).
T2 construct: purchased Calbiochem (EMD/MERCK Biosciences)
As to the kind of experiment: Enzyme inhibiting activity of MMPs (fluorogenic peptide substrate), MMP-9. Type of data set: biochemical. Particulars: human MMP-9; substrate MOCAc-Pro-Leu-Gly-Leu-A2Pr(DNP)-Ala-Arg-NH2. The protocol:
as §1, §2, §3, §4, §5

The next data set concerns the target T3, MMP-13 (Homo sapiens, UniProt P45452).
T3 construct: purchased Calbiochem (EMD/MERCK Biosciences)
The experiment in a line: Enzyme inhibiting activity of MMPs (fluorogenic peptide substrate), MMP-13. The note with it: human MMP-13, proenzyme activated with APMA; substrate MOCAc-Pro-Leu-Gly-Leu-A2Pr(DNP)-Ala-Arg-NH2. Type of data set: biochemical. The protocol: as §1
Since the purchased MMP-13 was Proenzyme, the activated one was used, which was incubated at 37° C. for 2 hours after the successive addition of an assay buffer (containing 50 mM Tris-HCl (pH7.6), 0.3 M NaCl, 10 mM CaCl2, 0.005% Brij35) and APMA (final concentration 1 mM) to the enzyme solution.
as §2, §3, §4, §5

T2 sequence (P14780 94-707): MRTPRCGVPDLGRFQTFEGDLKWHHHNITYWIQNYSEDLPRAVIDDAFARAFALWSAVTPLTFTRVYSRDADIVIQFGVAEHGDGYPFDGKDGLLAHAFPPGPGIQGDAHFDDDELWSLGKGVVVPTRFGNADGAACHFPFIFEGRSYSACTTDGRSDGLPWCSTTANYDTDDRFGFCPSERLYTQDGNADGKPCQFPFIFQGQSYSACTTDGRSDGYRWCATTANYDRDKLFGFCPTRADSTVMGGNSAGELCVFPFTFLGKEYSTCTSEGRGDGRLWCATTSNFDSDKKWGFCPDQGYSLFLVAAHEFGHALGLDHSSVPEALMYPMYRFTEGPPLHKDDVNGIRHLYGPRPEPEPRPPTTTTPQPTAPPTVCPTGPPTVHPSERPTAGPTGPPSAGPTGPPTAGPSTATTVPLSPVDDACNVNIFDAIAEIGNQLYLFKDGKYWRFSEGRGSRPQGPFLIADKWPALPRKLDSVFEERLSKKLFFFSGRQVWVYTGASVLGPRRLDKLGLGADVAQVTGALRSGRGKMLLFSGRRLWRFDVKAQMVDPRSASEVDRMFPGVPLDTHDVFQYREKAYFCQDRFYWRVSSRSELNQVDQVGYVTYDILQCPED

The term IC50 denotes the concentration at which inhibition is half-maximal. A lower IC50 goes with inhibition by little substance. On to `COc1ccc2cc(COc3ccc(C4CCN(S(=O)(=O)NC(C)C(=O)O)CC4)cc3)ccc2c1` (centres unmarked) [Compound I-19], for which the IC50 against MMP-2 was > 10 µM; against MMP-9, > 10 µM; on MMP-13, 0.142 µM.
For `CCC[C@H](NS(=O)(=O)N1CCN(c2ccc(/C=C/c3ccc4cc(OCOC)ccc4c3)cc2)CC1)C(=O)O` [Compound I-49, (S)-2-(4-{4-[(E)-2-(6-methoxymethoxy-naphthalen-2-yl)-vinyl]-phenyl}-piperazine-1-sulfonylamino)-pentanoic acid], the IC50 against MMP-2 was 1 to 10 µM; against MMP-9 it was > 10 µM; against MMP-13, 0.0965 µM.
One may read the melting point as the temperature, or range, at which the solid turns liquid. As to `C[C@@H](NS(=O)(=O)N1CCN(c2ccc(OCc3ccc4ccccc4c3)cc2)CC1)C(=O)O` [Compound I-2, (R)-2-{4-[4-(naphthalen-2-ylmethoxy)-phenyl]-piperazine-1-sulfonylamino}-propionic acid], the melting point lay within 167 to 171 °C.
Consider `COc1ccc2cc(/C=C/c3ccc(N4CCN(S(=O)(=O)N[C@@H](C)C(=O)O)CC4)cc3)ccc2c1` [Compound I-21, (S)-2-(4-{4-[(E)-2-(6-methoxy-naphthalen-2-yl)-vinyl]-phenyl}-piperazine-1-sulfonylamino}-propionic acid], for which the IC50 on MMP-2 is > 10 µM; at MMP-9, > 10 µM; against MMP-13 it was 0.176 µM.
With `CCOc1ccc2cc(C#Cc3ccc(N4CCN(S(=O)(=O)N[C@H](C)C(=O)O)CC4)cc3)ccc2c1` [Compound I-27, (R)-2-{4-[4-(6-ethoxy-naphthalen-2-ylethynyl)-phenyl]-piperazine-1-sulfonylamino)-propionic acid], the IC50 against MMP-2 was > 10 µM; on MMP-9 it was > 10 µM; on MMP-13, 0.0423 µM.
As to `COc1ccc2cc(C#Cc3ccc(N4CCN(S(=O)(=O)N[C@H](C)C(=O)O)C(C)C4)cc3)ccc2c1` (some centres unmarked) [Compound I-47], the IC50 at MMP-2 was > 10 µM; against MMP-9 it was > 10 µM; at MMP-13 it was 0.131 µM.
On to `CCC[C@H](NS(=O)(=O)N1CCN(c2ccc(/C=C/c3ccc4ccccc4c3)cc2)CC1)C(=O)O` [Compound I-13], for which the half-inhibitory concentration (IC50) against MMP-2 is > 10 µM; against MMP-9 it was > 10 µM; at MMP-13, 0.0443 µM.
With `CCC[C@H](NS(=O)(=O)N1CCC(c2ccc(/C=C/c3ccc4ccccc4c3)cc2)CC1)C(=O)O` [Compound I-25], the figures for the IC50 against MMP-2, against MMP-9 and at MMP-13 were > 10 µM, > 10 µM and 0.145 µM, respectively.
As for `CCC[C@H](NS(=O)(=O)N1CCC(c2ccc(C=Cc3ccc4cc(OC)ccc4c3)cc2)CC1)C(=O)O` [Compound I-24, (S)-2-(4-{4-[(A)-2-(6-methoxy-naphthalen-2-yl)-vinyl]-phenyl)-piperidine-1-sulfonylamino}-pentanoic acid], the IC50 on MMP-2 was > 10 µM; against MMP-9, > 10 µM; at MMP-13, 0.138 µM.
For the compound `COc1ccc2cc(C#Cc3ccc(C4CCN(S(=O)(=O)N[C@H](C)C(=O)O)CC4)cc3)ccc2c1` [Compound I-11, (R)-2-{4-[4-(6-methoxy-naphthalen-2-ylethynyl)-phenyl]-piperidine-1-sulfonylamino}-propionic acid], the IC50 at MMP-2 is > 10 µM; against MMP-9, > 10 µM; on MMP-13 it was 0.0549 µM.
Turning to `COc1ccc2cc(CNc3ccc(N4CCN(S(=O)(=O)N[C@H](C)C(=O)O)CC4)cc3)ccc2c1` [Compound I-45, (R)-2-(4-{4-[4-(6-methoxy-naphthalen-2-ylmethyl)-amino]-phenyl}-piperazine-1-sulfonylamino)-propionic acid], the IC50 against MMP-2 was 1 to 10 µM; on MMP-9, > 10 µM; on MMP-13 it was 0.186 µM.
Take `C[C@@H](NS(=O)(=O)N1CCN(c2ccc(C#Cc3ccc4cc(OCC5CC5)ccc4c3)cc2)CC1)C(=O)O` [Compound I-32, (R)-2-{4-[4-(6-cyclopropylmethoxy-naphthalen-2-ylethynyl)-phenyl]-piperazine-1-sulfonylamino)-propionic acid]: the IC50 at MMP-2 is 1 to 10 µM; at MMP-9 it was > 10 µM; on MMP-13, 0.0685 µM.
Turning to `COc1ccc2cc(COc3ccc(N4CCN(S(=O)(=O)N[C@@H](C)C(=O)O)CC4)cc3)ccc2c1` [Compound I-15, (S)-2-{4-[4-(6-methoxy-naphthalen-2-ylmethoxy)-phenyl]-piperazine-1-sulfonylamino}-propionic acid], the concentration for half-maximal inhibition (IC50) is 1 to 10 µM against MMP-2, > 10 µM on MMP-9 and 0.126 µM against MMP-13.
On to `CCC[C@H](NS(=O)(=O)N1CCN(c2ccc(C#Cc3ccc4cc(OC)ccc4c3)cc2)CC1)C(=O)O` [Compound I-1, (S)-2-{4-[4-(6-methoxy-naphthalen-2-ylethynyl)-phenyl]-piperazine-1-sulfonylamino}-pentanoic acid], for which the melting point is 187 to 190 °C (dec.). Further, at MMP-2, the IC50 is > 10 µM. For the same compound, the IC50 against MMP-9 is > 10 µM. The same compound had an IC50 against MMP-13 of 0.121 µM.
As to `COc1ccc2cc(C#Cc3ccc(N4CCN(S(=O)(=O)N[C@H](C(=O)O)C(C)C)CC4)cc3)ccc2c1` [Compound I-5, (S)-2-{4-[4-(6-methoxy-naphthalen-2-ylethynyl)-phenyl]-piperazine-1-sulfonylamino}-3-methyl-butanoic acid], the IC50 against MMP-2 was > 10 µM; against MMP-9 it was > 10 µM; on MMP-13, 0.11 µM.
As to `CON=Cc1ccc2cc(C#Cc3ccc(N4CCN(S(=O)(=O)N[C@H](C)C(=O)O)CC4)cc3)ccc2c1` [Compound I-66, (R)-2-(4-{4-[6-(methoxyimino-methyl)-naphthalen-2-ylethynyl]-phenyl)-piperazine-1-sulfonylamino]-propionic acid], the IC50 is > 10 µM against MMP-2, > 10 µM on MMP-9 and 0.0396 µM on MMP-13.
Turning to `CCC[C@H](NS(=O)(=O)N1CCC(c2ccc(CCc3ccc4cc(OC)ccc4c3)cc2)CC1)C(=O)O` [Compound I-20, (S)-2-(4-{4-[2-(6-methoxy-naphthalen-2-yl)-ethyl]-phenyl}-piperidine-1-sulfonylamino]-pentanoic acid], the IC50 is 1 to 10 µM at MMP-2, > 10 µM against MMP-9 and 0.0945 µM against MMP-13.
For `COc1ccc2cc(C#Cc3ccc(N4CCN(S(=O)(=O)N[C@H](C)C(=O)O)C[C@@H]4C)cc3)ccc2c1` [Compound I-53], in that order: 1 to 10 µM, > 10 µM and 0.107 µM.
With `CCC[C@H](NS(=O)(=O)N1CCN(c2ccc(C#Cc3ccc4cc(OCC)ccc4c3)cc2)CC1)C(=O)O` [Compound I-28, (S)-2-{4-[4-(6-ethoxy-naphthalen-2-ylethynyl)-phenyl]-piperazine-1-sulfonylamino)-pentanoic acid], the IC50 is > 10 µM at MMP-2, > 10 µM against MMP-9 and 0.0771 µM at MMP-13.
